Assay results: patent publication US20100120752A1, “MUSCARINIC AGONISTS TO TREAT IMPULSE CONTROL DISORDERS” (Solvay Pharmaceuticals, B.V., priority 2007, published 2010)

Columns and labels:
Male Wistar rats = assay: 5-Choice Serial Reaction Time task, xanomeline or desmethylclozapine alone; assay type: in vivo, rat; conditions: for number of anticipatory responses / number of correct responses / number of fault responses / number of missed responses / percentage of correct responses / persevering responses / total number of responses: ±S.E.M.
From the text: (§1) Male Wistar rats weighing 330-450 g (Harlan, The Netherlands) were housed in pairs under a 12-h light/dark cycle (lights off at 7:00 a.m.) and had daily access to a limited amount of food that kept their body weight at approximately 85% of the free feeding weight. Water was available ad libitum. All procedures were in compliance with the European Communities Council Directive of Nov. 24, 1986 (86/609 EEC).
(§2) Standard 5-CSRT boxes from MED associates Inc. Georgia, Vt. US were used. The curved wall of the chamber contained five 1.6 cm2 holes, 2.2 cm deep, 2 cm above floor level. […] In every hole a yellow stimulus light was presented. A food dispenser was located at the opposite wall. The box was illuminated by a 28 Volt 100 mA house light. The 5-CSRT boxes were placed in sound attenuating cubicles. On-line control of the apparatus and data collection were performed by a MED-PC experimental apparatus programming system (Tatham, 1989), running on a Dell Optiplex GX1 PC.
(§3) Rats were first trained to collect reinforcement pellets from the food dispenser and to collect reinforcements that were placed in the 5 holes in order to habituate the animals to the 5-CSRT task apparatus. Next, training of the 5-CSRT task started. These sessions started by illumination of the light in one of the holes for 30 seconds (stimulus duration). A response by the rat into the illuminated hole or a response in that particular hole for a short period of time after the illumination (the limited hold 60 sec) was rewarded with the delivery of a food pellet, termination of the trial and a correct response was recorded. The light stimulus was presented in each of the holes 20 times during a session (total of 100 presentations), and the order of presentations was randomized. […] After termination of the trial a variable inter-trial interval was started (1, 3, 5, 7 or 9 sec) after which the next trial was started. Upon reaching a 75% correct performance level the duration of illumination of the light stimulus was reduced until a presentation of 0.5 sec (from 30 to 20, 10, 5, 2, 1, 0.9; 0.8; 0.7; 0.6; 0.5.) and a limited hold of 5 sec (in three steps from 30 to 20, 10 and 5 sec), was reached. (Robbins, 1993).
(§4) The following parameters were measured (Muir, 1996):
(§5) Accuracy: the percentage correct responses divided by the total responses made.
(§6) Errors of omission: the number of missed stimulus presentations.
(§7) Correct responses: the number of correct responses.
(§8) Fault responses: the number of responses in the wrong hole.
(§9) Anticipatory responses: the number of premature responses made preceding the presentation of the light stimulus.
(§10) Persevering responses: responses emitted after an incorrect or correct response.
Xanomeline, a mixed muscarine-M1 and muscarine-M4 agonist, and desmethylclozapine, a muscarinic-M1 agonist and muscarinic-M4 antagonist, were each tested in a Latin hexagon design, meaning that each rat received all test-dosages (0, 1, 3 and 10 mg/kg i.p.) in a random order.

[1] = tested on: MK801 induced increase of anticipatory responses of rats; assay: 5-Choice Serial Reaction Time task, interaction studies against MK801; assay type: in vivo, rat; conditions: for % correct resp / nr anticipatory resp / nr of correct resp / nr of fault resp / nr of missed resp / persevering resp / total nr of resp: ±SEM
From the text: as §1, §2, §3, §4, §5, §6, §7, §8, §9, §10
Both xanomeline and desmethylclozapine were each tested in the same dose range against 0.05 mg/kg (s.c.) MK801, a dose shown to elicit unequivocal impulsive behavior (see Table 1).

[2] = 1 mg/kg against 0.05 mg/kg (s.c.) MK801
[3] = 3 mg/kg against 0.05 mg/kg (s.c.) MK801
[4] = 10 mg/kg against 0.05 mg/kg (s.c.) MK801

## CCCCCCOc1nsnc1C1=CCCN(C)C1 [xanomeline]
Male Wistar rats; 1 mg/kg i.p.
  number of anticipatory responses: 58.0 ± 7.9
  number of correct responses: 53.0 ± 2.4
  number of fault responses: 22.7 ± 1.6
  number of missed responses: 24.3 ± 2.4
  percentage of correct responses: 70.0 ± 2.1%
  persevering responses: 6.3 ± 1.1
  total number of responses: 75.1 ± 2.4
Male Wistar rats; 3 mg/kg i.p.
  number of anticipatory responses: 60.8 ± 4.9
  number of correct responses: 51.2 ± 2.5
  number of fault responses: 21.7 ± 1.8
  number of missed responses: 27.2 ± 2.2
  percentage of correct responses: 70.2 ± 2.5%
  persevering responses: 6.7 ± 1.4
  total number of responses: 72.8 ± 2.2
Male Wistar rats; 10 mg/kg i.p.
  number of anticipatory responses: 21.5 ± 6.4
  number of correct responses: 37.2 ± 2.6
  number of fault responses: 15.0 ± 1.8
  number of missed responses: 46.8 ± 3.7
  percentage of correct responses: 72.1 ± 2.3%
  persevering responses: 4.9 ± 0.9
  total number of responses: 53.2 ± 3.7
Male Wistar rats; at 10 mg/kg, table 2
  effect on number of anticipatory responses: reduced
[1]; [2]
  % correct resp: 70.2 ± 3.8%
  nr anticipatory resp: 75.3 ± 10.5
  nr of correct resp: 58.7 ± 4.4
  nr of fault resp: 23.8 ± 2.4
  nr of missed resp: 17.6 ± 3.1
  persevering resp: 15.3 ± 2.5
  total nr of resp: 82.4 ± 3.1
[1]; [3]
  % correct resp: 71.6 ± 2.4%
  nr anticipatory resp: 99.3 ± 11.1
  nr of correct resp: 57.4 ± 2.7
  nr of fault resp: 22.7 ± 1.9
  nr of missed resp: 19.9 ± 2.4
  persevering resp: 14.1 ± 3.5
  total nr of resp: 80.1 ± 2.4
[1]; [4]
  % correct resp: 74.4 ± 2.8%
  nr anticipatory resp: 47.5 ± 8.4
  nr of correct resp: 50.9 ± 2.4
  nr of fault resp: 18.0 ± 2.2
  nr of missed resp: 31.1 ± 3.0
  persevering resp: 8.5 ± 1.1
  total nr of resp: 68.9 ± 3.0
[1]; table 3
  effect on increase in anticipatory responses induced by MK801: antagonize
  effect on increase in persevering responses induced by MK801: antagonize
